From publication PMC11173846, “Comparison of HPLC, HPTLC, and In Silico Lipophilicity Parameters Determined for 5-Heterocyclic 2-(2,4-Dihydroxyphenyl)-1,3,4-thiadiazoles” (Molecules, 2024)

Experiment: Chromatographic lipophilicity overall (HPTLC and HPLC systems), structure-retention comparison and PCA
Format: physicochemical
Conditions: for lipophilicity by heterocyclic substituent (chromatographic parameters, in words): Tables S1–S7, all chromatographic systems; for lipophilicity by first principal component score (average value of lipophilicity, in words): PCA of experimental and computational data, PC1
Description: Chromatographic studies were carried out using both HPTLC and HPLC methods under the isocratic conditions. In all systems, there were stated linear relationships between the RM (HPTLC) or log kw (HPLC) values and the organic modifier content (ϕ) in the mobile phase. This is described by the Soczewinski–Wachtmeister equation [31] as follows:RM = RMw + bϕ(1) log k = log kw + bϕ(2) where ϕ expresses the volume fraction of the organic solvent in the mobile phase; RMw (log kw) corresponds to 0% of the organic solvent content in the mobile phase; b represents the slope of a regression line.
The retention behavior of the compounds was analyzed by HPTLC using the octyl C8 and octadecyl C18 stationary phases and MeOH, ACN, acetone, and dioxane as organic modifiers (Supplementary Materials Tables S1–S4). The chromatographic evaluation of using the HPLC methods was made in the systems, with C8/MeOH, C8/ACN, and C18/ACN analogous to HPTLC (Tables S5 and S7). The measurements using the IAM and Chol stationary phases and the buffered mobile phases (pH = 7.4) were additionally used (Supplementary Materials Tables S5–S7).
The lipophilicity parameters for the Et derivatives were usually higher than those for chlorine ones (1 and 2; 7 and 8). This was an expected effect, taking into account the hydrophobicity parameter π (Hansch–Fujita π constant) for these substituents. Deviations from this order were sometimes observed. […] (Supplementary Materials Tables S1–S7).
To investigate the similarity between the investigated compounds, the obtained experimental and computational data were analyzed using scaled principal component analysis.
The most important conclusion from the PCA analysis is that all coefficients, both computational and experimental ones, were highly redundant. In total, 85% of the information was common for them and could be collected together to form the first principal component. The score could be interpreted as an average value of lipophilicity.

Compound	lipophilicity by heterocyclic substituent (chromatographic parameters, in words)	lipophilicity by first principal component score (average value of lipophilicity, in words)
Oc1ccc(-c2nnc(-c3ccc4nonc4c3)s2)c(O)c1 [Compound 6]	low lipophilicity	–
Oc1cc(O)c(-c2nnc(-c3ccco3)s2)cc1Cl [Compound 1]	low lipophilicity	–
CCc1cc(-c2nnc(-c3cc4cc(Br)ccc4n3C)s2)c(O)cc1O [Compound 5]	–	highest lipophilicity

Other lines, results leading:

lipophilicity by heterocyclic substituent (chromatographic parameters, in words)	lipophilicity by first principal component score (average value of lipophilicity, in words)	Compound
–	lowest lipophilicity	Oc1ccc(-c2nnc(-c3ccn4c(Br)cnc4c3)s2)c(O)c1 [Compound 9]
lowest lipophilicity	–	Oc1ccc(-c2nnc(-c3ccc(N4CCOCC4)nc3)s2)c(O)c1 [Compound 13]
